The values below come from patent US8846656B2, “Tetrahydropyrido-pyridine and tetrahydropyrido-pyrimidine compounds and use thereof as C5a receptor modulators” (Novartis AG, priority 2011, dated 2014).

One experiment has as its target human C5aR (Homo sapiens (Human), UniProt P21730). Nature of the experiment: FLIPR assay: inhibition of C5a-mediated calcium mobilization. It is filed as cell-based. The settings on record: stable cell line over expressing human C5aR & Gα15, human C5a at EC50 (0.1-0.25 nM). On the procedure: Compounds were tested for their ability to inhibit C5a-mediated calcium mobilization using a stable cell line over expressing the human C5aR & the Gα15 protein on the FLIPR (Fluorescent Imaging Plate Reader) Tetra system. Cells were maintained in culture media containing DMEM (Dulbecco's Modified Eagle Medium) with 4.5 g/L glucose, 10% fetal bovine serum, 100 U/mL, 1× non-essential amino acid, and 250 μg/mL G418 (Geneticin). Prior to testing of compounds, cells were plated at 10,000 cells/well in clear bottom 384-well black plate, and incubated overnight at 37° C. with 5% CO2. On the day of experiment, culture media was removed, and replaced with assay buffer HBSS (Hanks' Balanced Salt Solution) with 20 mM HEPES (4-(2-hydroxyethyl)-1-piperazineethanesulfonic acid) and 0.1% BSA (bovine serum albumin) BSA containing calcium 5 dye (Molecular Devices) and 2.5 mM probenecid. After 1 hour incubation at 37° C., 5% CO2 for 60 min, cells were pre-incubated with compounds for 30 minutes at room temperature, in 1% DMSO (dimethyl sulfoxide).

Another experiment relates to CD11b. The experiment can be described thus: Human whole blood CD11b up-regulation assay. It is filed as cell-based. The settings on record: Homo sapiens, 2 nM human C5a, CD15+ granulocytes, read-out: hCD11b IC50. Here is the method: Whole blood was collected in sodium heparin tubes and the assay started within 2 hours of the blood draw. The blood was incubated with compounds in 1% DMSO (dimethyl sulfoxide) at room temperature for 10 minutes with gentle rocking. 2 nM of human C5a was then added for 15 minutes at room temperature with gentle rocking. Following the C5a incubation period cells were washed once with cold FACS (fluorescence-activated cell sorting) buffer (phosphate buffered saline+0.5% bovine serum albumin) FITC (fluorescein isothiocyanate) mouse anti-human CD15 and PE-Cy5 (phycoerythrin-cyanine 5) mouse anti-human CD11b antibodies (Becton Dickinson) were gently mixed with the cells and allowed to incubate for 30 minutes on ice protected from the light. Cells were then washed three times with cold FACS buffer. Red blood cells (RBC) were lysed by incubating with BD FACS lysis buffer (Becton Dickinson) for 10 minutes at room temperature. Cells were pelleted and the lysing procedure was repeated until all RBCs were lysed. The remaining leukocytes were resuspended in BD lysis buffer. Samples were acquired on the LSR^11 flow cytometer and 10,000 events of the CD15+ granulocyte population were collected. The CD11b median fluorescence intensity of the CD 15+ cell population was evaluated using FACSDiva software (Becton Dickinson).

pIC50: −log10 of the molar value.

Chain of human C5aR (P21730 whole entry): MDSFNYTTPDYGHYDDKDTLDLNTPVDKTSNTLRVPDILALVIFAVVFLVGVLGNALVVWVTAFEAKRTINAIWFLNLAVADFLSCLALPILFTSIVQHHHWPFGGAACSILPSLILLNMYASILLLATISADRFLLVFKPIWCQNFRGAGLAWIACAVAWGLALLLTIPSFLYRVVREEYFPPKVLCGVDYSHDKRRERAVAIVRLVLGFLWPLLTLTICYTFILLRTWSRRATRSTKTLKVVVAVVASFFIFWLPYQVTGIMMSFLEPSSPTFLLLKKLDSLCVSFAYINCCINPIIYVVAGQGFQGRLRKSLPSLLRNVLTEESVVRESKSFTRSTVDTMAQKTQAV

One may read the pIC50 as the IC50 on a negative log10 scale, so that one unit is a factor of ten. Take `Cc1ccc(C(C)C)cc1N1CCc2nc(-c3cccc4[nH]cc(C)c34)nc(N3CC[C@H](O)[C@H](C)C3)c2C1` (racemic) [Example 17-AN, racemic-1-(6-(5-isopropyl-2-methylphenyl)-2-(3-methyl-1H-indol-4-yl)-5,6,7,8-tetrahydropyrido[4,3-d]pyrimidin-4-yl)-3-methylpiperidin-4-ol]: the pIC50 at human C5aR was 7.51; in the experiment with CD11b, 6.37. In the case of `CO[C@H]1CCN(c2nc(-c3cccc4[nH]cc(C)c34)nc3c2CN(c2cc(C(C)C)ccc2C)CC3)C[C@H]1C` (racemic) [Example 17-AQ, racemic 6-(5-isopropyl-2-methylphenyl)-4-(4-methoxy-3-methylpiperidin-1-yl)-2-(3-methyl-1H-indol-4-yl)-5,6,7,8-tetrahydropyrido[4,3-d]pyrimidine], the pIC50 at human C5aR is 7.80; in the experiment on CD11b, 6.56. The like results for `Cc1ccc(C(C)C)cc1N1CCc2nc(-c3cccc4[nH]cc(C)c34)nc(N3C[C@H](C)N(CC(N)=O)C[C@H]3C)c2C1` (racemic) [Example 28-D, Racemic-2-(4-(6-(5-Isopropyl-2-methylphenyl)-2-(3-methyl-1H-indol-4-yl)-5,6,7,8-tetrahydropyrido[4,3-d]pyrimidin-4-yl)-(trans)-2,5-dimethylpiperazin-1-yl)acetamide] were, in that order, 8.40 and 7.24. The like results for `COC1CCN(c2nc(-c3c(C)cccc3C)nc3c2CN([C@@H](C)c2ccccc2)CC3)CC1(C)C` (mixture of isomers) [Example 33-C, (±)-2-(2,6-Dimethylphenyl)-4-(4-methoxy-3,3-dimethylpiperidin-1-yl)-6-((S)-1-phenylethyl)-5,6,7,8-tetrahydropyrido[4,3-d]pyrimidine] were, in that order, 7.10 and 6.62. `Cc1ccc2[nH]nc(C)c2c1-c1nc2c(c(N3C[C@@H](O)[C@@H]3C)n1)CN(c1c(Cl)c(C3CC3)nn1C)CC2` (racemic) [Example 69-H, (trans)-1-(6-(4-chloro-3-cyclopropyl-1-methyl-1H-pyrazol-5-yl)-2-(3,5-dimethyl-1H-indazol-4-yl)-5,6,7,8-tetrahydropyrido[4,3-d]pyrimidin-4-yl)-2-methylazetidin-3-ol]: the values for the pIC50 at human C5aR and with CD11b were 8.40 and 6.71, respectively. Taken in the same sequence, the figures for `CO[C@@H]1CN(c2nc(-c3c(C)ccc4[nH]nc(C)c34)nc3c2CN(c2c(Cl)c(C4CC4)nn2C)CC3)[C@H]1C` (racemic) [Example 69-I, 6-(4-chloro-3-cyclopropyl-1-methyl-1H-pyrazol-5-yl)-2-(3,5-dimethyl-1H-indazol-4-yl)-4-((trans)-methoxy-2-methylazetidin-1-yl)-5,6,7,8-tetrahydropyrido[4,3-d]pyrimidine] were 8.40 and 7.60. Taken in the same sequence, the figures for `Cc1ccc2[nH]nc(C)c2c1-c1nc2c(c(N3CC[C@H]4OC[C@H]4C3)n1)CN(c1c(Cl)c(C3CC3)nn1C)CC2` (racemic) [Example 69-M, (cis)-3-(6-(4-chloro-3-cyclopropyl-1-methyl-1H-pyrazol-5-yl)-2-(3,5-dimethyl-1H-indazol-4-yl)-5,6,7,8-tetrahydropyrido[4,3-d]pyrimidin-4-yl)-7-oxa-3-azabicyclo[4.2.0]octane] were 8.10 and 7.35. As for `CO[C@H]1CN(c2nc(-c3c(C)ccc4[nH]nc(C)c34)nc3c2CN(c2cc(C(C)C)ccc2C)CC3)C[C@@H]1N(C)C` (single isomer, unassigned) [Example 65-H, (trans)-1-(2-(3,5-dimethyl-1H-indazol-4-yl)-6-(5-isopropyl-2-methylphenyl)-5,6,7,8-tetrahydropyrido[4,3-d]pyrimidin-4-yl)-4-methoxy-N,N-dimethylpyrrolidin-3-amine], the results for the pIC50 at human C5aR and in the experiment on CD11b were 8.40 and 7.25, respectively.

For the compound `Cc1ccc(C(C)C)cc1N1CCc2nc(-c3c(C)ccc4[nH]nc(C)c34)nc(N3CCC3C)c2C1` (single isomer, unassigned) [Example 65-I, 2-(3,5-dimethyl-1H-indazol-4-yl)-6-(5-isopropyl-2-methylphenyl)-4-(2-methylazetidin-1-yl)-5,6,7,8-tetrahydropyrido[4,3-d]pyrimidine], the figures for the pIC50 on human C5aR and with CD11b were 9.00 and 7.72, respectively.

In the case of `COC1CCN(c2nc(-c3cccc4[nH]cc(C)c34)nc3c2CN(c2cc(C(C)C)ccc2C)CC3)[C@H](C)C1` (stereo in doubt) [Example 17-R, 6-(5-isopropyl-2-methylphenyl)-4-((2R,4S)-4-methoxy-2-methylpiperidin-1-yl)-2-(3-methyl-1H-indol-4-yl)-5,6,7,8-tetrahydropyrido[4,3-d]pyrimidine], the pIC50 at human C5aR was 8.00; with CD11b, 7.38. Take `Cc1cc(N2CCc3nc(-c4c(C)cccc4C)nc(N4CCCC(C)(C)C4)c3C2)n(C)n1` [Example 16-O, 6-(1,3-dimethyl-1H-pyrazol-5-yl)-2-(2,6-dimethylphenyl)-4-(3,3-dimethylpiperidin-1-yl)-5,6,7,8-tetrahydropyrido[4,3-d]pyrimidine]: the results for the pIC50 at human C5aR and in the experiment on CD11b were 7.05 and 5.65, respectively. Taken in the same sequence, the figures for `Cc1ccc(C(C)C)cc1N1CCc2nc(-c3cccc4[nH]cc(C)c34)nc(N3CC(O)C3)c2C1` [Example 17-AP, 1-(6-(5-isopropyl-2-methylphenyl)-2-(3-methyl-1H-indol-4-yl)-5,6,7,8-tetrahydropyrido[4,3-d]pyrimidin-4-yl)azetidin-3-ol] were 8.00 and 6.29. With `CO[C@H]1C[C@H]2CC[C@@H](C1)N2c1nc(-c2cccc3[nH]cc(C)c23)nc2c1CN(c1cc(C(C)C)ccc1C)CC2` [Example 17-AS, 6-(5-isopropyl-2-methylphenyl)-4-((3-endo)-3-methoxy-8-azabicyclo[3.2.1]octan-8-yl)-2-(3-methyl-1H-indol-4-yl)-5,6,7,8-tetrahydropyrido[4,3-d]pyrimidine], the pIC50 is 7.34 on human C5aR and 7.17 in the experiment with CD11b.

In the case of `CO[C@H]1CCN(c2nc(-c3cccc4[nH]cc(C)c34)nc3c2CN(c2cc(C(C)C)ccc2C)CC3)C[C@@H]1C` [Example 17-AY, 6-(5-isopropyl-2-methylphenyl)-4-((3S,4S)-4-methoxy-3-methylpiperidin-1-yl)-2-(3-methyl-1H-indol-4-yl)-5,6,7,8-tetrahydropyrido[4,3-d]pyrimidine], the pIC50 on human C5aR is 8.05; in the experiment on CD11b it was 7.35. The like results for `CO[C@@H]1CCN(c2nc(-c3cccc4[nH]cc(C)c34)nc3c2CN(c2cc(Cl)ccc2C)CC3)CC1(C)C` [Example 17-BK, (R)-6-(5-chloro-2-methylphenyl)-4-(4-methoxy-3,3-dimethylpiperidin-1-yl)-2-(3-methyl-1H-indol-4-yl)-5,6,7,8-tetrahydropyrido[4,3-d]pyrimidine] were, in that order, 6.79 and 7.40. For the compound `CO[C@H]1CCN(c2nc(-c3cccc4[nH]cc(C)c34)nc3c2CN(c2cc(C(C)C)ccc2C)CC3)CC1(C)C` [Example 17-G, (S)-6-(5-Isopropyl-2-methylphenyl)-4-(4-methoxy-3,3-dimethylpiperidin-1-yl)-2-(3-methyl-1H-indol-4-yl)-5,6,7,8-tetrahydropyrido[4,3-d]pyrimidine], the pIC50 at human C5aR is 8.40; in the experiment on CD11b, 6.94. Regarding `Cc1ccccc1N1CCc2nc(-c3c(C)cccc3C)nc(N(C)CC(C)(C)O)c2C1` [Example 17-H, 1-((2-(2,6-Dimethylphenyl)-6-(o-tolyl)-5,6,7,8-tetrahydropyrido[4,3-d]pyrimidin-4-yl)(methyl)amino)-2-methylpropan-2-ol], the figures for the pIC50 at human C5aR and in the experiment with CD11b were 8.00 and 6.52, respectively. Take `[2H]C1([2H])c2c(C)cc(-c3c(C)ccc4[nH]ncc34)nc2CCN1c1cc(C(C)C)ccc1C` [Example 43-A, 6-(5-Isopropyl-2-methylphenyl)-4-methyl-2-(5-methyl-1H-indazol-4-yl)-5,6,7,8-tetrahydro(5,5-^2H2)-1,6-naphthyridine]: the pIC50 with CD11b is 6.75. Same read-out and setting: in the case of `Cc1ccc2[nH]nc(C)c2c1-c1nc2c(c(N3CCOC[C@H]3C)n1)CN(c1c(F)c(C3CC3)nn1C)CC2` [Example 76-C, (R)-4-(6-(3-Cyclopropyl-4-fluoro-1-methyl-1H-pyrazol-5-yl)-2-(3,5-dimethyl-1H-indazol-4-yl)-5,6,7,8-tetrahydropyrido[4,3-d]pyrimidin-4-yl)-3-methylmorpholine] it was 7.34.
